Measurements reported in patent publication US11274280B2, “Generation of functional beta cells from human pluripotent stem cell-derived endocrine progenitors” (Novo Nordisk A/S, priority 2016, dated 2022).

Test system: hPSC-derived beta cells
Assay: Perfusion assay of dynamic human insulin secretion in vitro
Type: cell-based
Conditions: human insulin ELISA
Protocol: Mature beta cells are functionally defined by their rapid response to elevated glucose. Secretion of human insulin by beta cells at the end of BC step 2 was measured as repeated responses to 20 mM glucose±1 μM exendin-4 or ±the anti-diabetic sulfonylurea compound Tolbutamide within a perfusion system.
Briefly, groups of 300 hand-picked, clusters of hESC- or hiPSC-derived cell clusters were suspended with beads (Bio-Rad #150-4124) in plastic chambers of Biorep PERFUSION SYSTEM (Biorep #PERI-4.2). Under temperature- and CO2-controlled conditions, the cells were perfused at 0.5 ml min-1 with a Krebs buffer. Prior to sample collection, cells were equilibrated under basal (2 mM glucose) conditions for 1 h. During perfusion cells were exposed to repeated challenges with 20 mM glucose±1 μM exendin-4 or ±100 μM Tolbutamide. At the end of perfusion, cells were exposed to cAMP-elevating agents on top of 20 mM glucose. Insulin secretion was measured by human insulin ELISA (Mercodia).

Row | Compound | effect on insulin secretion (100 μM Tolbutamide with 20 mM glucose, day 7 of BC step 2) | level of insulin secretion (1 μM exendin-4 with 20 mM glucose, day 3 and day 7 of BC step 2)
1 | CCCCNC(=O)NS(=O)(=O)c1ccc(C)cc1 [tolbutamide, Tolbutamide] | significant additive effect | –
2 | exendin-4 | – | increased the level of insulin secretion
